{"source": "the supplement of paper PMC11208160", "test": "recombinant barcode read abundance after kanamycin selection (control-corrected) (log10(CPM+1)); higher = more efficient recombination; sequences stand for … in AGTGCAGAGAAAATCGGCCAGTTTTCTCTGCCTGCAGTCCGCATGCCGT…ATTTATGCAGCGGACTGCCTTTCTCCCAAAGTGATAAACCGGACAGTATCATGGACCGGTTTTCCCGGTAATCCGTATTTGCAAGGTTGGTTTCACT; site = the 11-nt target", "method_in_brief": "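Pooled oligos, each joining a target to an IS621 bridge RNA target-binding loop, were cloned and co-electroporated with a donor plasmid into E. coli. Selective plates carried chloramphenicol/ampicillin/kanamycin and 0.1 mM IPTG, while chloramphenicol/ampicillin LB agar served as control, with two replicates of each. Recombination efficiency rests on averaged, control-corrected counts per million of barcodes at recombinant junctions, shown as log10(CPM+1).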"}
{"sequence": "CGGTCCCCTTGGGTTCTAACCTGTTGCCATT [CGGTCCCCTTG_LTGcore_CT_RTGcore_AA] (site CGGTCCCCTTG) (LTG core: CT, RTG core: AA)", "values": [{"measurement": "recombinant barcode read abundance (log10)", "value": 0.369}]}
{"sequence": "GAGCCCAACTGGGTTCTAACCTGTTGCCTGT [GAGCCCACTAG_LTGcore_AC_RTGcore_AC] (site GAGCCCACTAG) (LTG core: AC, RTG core: AC)", "values": [{"measurement": "recombinant barcode read abundance (log10)", "value": 0.199}]}
{"sequence": "GAGCCCAATTGGGTTCTAACCTGTTGCCTAT [GAGCCCACTAG_LTGcore_AT_RTGcore_AT] (site GAGCCCACTAG) (LTG core: AT, RTG core: AT)", "values": [{"measurement": "recombinant barcode read abundance (log10)", "value": 0.154}]}
{"sequence": "GAGCCCACCTGGGTTCTAACCTGTTGCCTGG [GAGCCCACTAG_LTGcore_CC_RTGcore_CC] (site GAGCCCACTAG) (LTG core: CC, RTG core: CC)", "values": [{"measurement": "recombinant barcode read abundance (log10)", "value": 0.0451}]}
{"sequence": "GAGCCCACGTGGGTTCTAACCTGTTGCCTAG [GAGCCCACTAG_LTGcore_CG_RTGcore_CT] (site GAGCCCACTAG) (LTG core: CG, RTG core: CT)", "values": [{"measurement": "recombinant barcode read abundance (log10)", "value": 0.2}]}
{"sequence": "GAGCCCATCTGGGTTCTAACCTGTTGCCTGA [GAGCCCACTAG_LTGcore_TC_RTGcore_TC] (site GAGCCCACTAG) (LTG core: TC, RTG core: TC)", "values": [{"measurement": "recombinant barcode read abundance (log10)", "value": 0.0397}]}
{"sequence": "GAGGCCTCATGGGTTCTAACCTGTTGCCATG [GAGGCCTCTTG_LTGcore_CA_RTGcore_CA] (site GAGGCCTCTTG) (LTG core: CA, RTG core: CA)", "values": [{"measurement": "recombinant barcode read abundance (log10)", "value": 0.0323}]}
{"sequence": "GAGGCCTCCTGGGTTCTAACCTGTTGCCAAG [GAGGCCTCTTG_LTGcore_CC_RTGcore_CT] (site GAGGCCTCTTG) (LTG core: CC, RTG core: CT)", "values": [{"measurement": "recombinant barcode read abundance (log10)", "value": 0.273}]}
{"sequence": "GAGGCCTCGTGGGTTCTAACCTGTTGCCACG [GAGGCCTCTTG_LTGcore_CG_RTGcore_CG] (site GAGGCCTCTTG) (LTG core: CG, RTG core: CG)", "values": [{"measurement": "recombinant barcode read abundance (log10)", "value": 0.169}]}
{"sequence": "GAGGCCTCTTGGGTTCTAACCTGTTGCCAGC [GAGGCCTCTTG_LTGcore_CT_RTGcore_GC] (site GAGGCCTCTTG) (LTG core: CT, RTG core: GC)", "values": [{"measurement": "recombinant barcode read abundance (log10)", "value": 0.285}]}
{"sequence": "GAGGCCTGATGGGTTCTAACCTGTTGCCATC [GAGGCCTCTTG_LTGcore_GA_RTGcore_GA] (site GAGGCCTCTTG) (LTG core: GA, RTG core: GA)", "values": [{"measurement": "recombinant barcode read abundance (log10)", "value": 0.231}]}
{"sequence": "GAGGCCTGCTGGGTTCTAACCTGTTGCCAGC [GAGGCCTCTTG_LTGcore_GC_RTGcore_GC] (site GAGGCCTCTTG) (LTG core: GC, RTG core: GC)", "values": [{"measurement": "recombinant barcode read abundance (log10)", "value": 0.275}]}
{"sequence": "GAGGCCTTATGGGTTCTAACCTGTTGCCATA [GAGGCCTCTTG_LTGcore_TA_RTGcore_TA] (site GAGGCCTCTTG) (LTG core: TA, RTG core: TA)", "values": [{"measurement": "recombinant barcode read abundance (log10)", "value": 0.172}]}
{"sequence": "GAGTCCAAATGGGTTCTAACCTGTTGCGTAG [GAGTCCACTAC_LTGcore_AA_RTGcore_CT] (site GAGTCCACTAC) (LTG core: AA, RTG core: CT)", "values": [{"measurement": "recombinant barcode read abundance (log10)", "value": 0.0292}]}
{"sequence": "GAGTCCACTTGGGTTCTAACCTGTTGCGTAG [GAGTCCACTAC_LTGcore_CT_RTGcore_CT] (site GAGTCCACTAC) (LTG core: CT, RTG core: CT)", "values": [{"measurement": "recombinant barcode read abundance (log10)", "value": 2.39}]}
{"sequence": "GAGTCCACTTGGGTTCTAACCTGTTGCGTCC [GAGTCCACTAC_LTGcore_CT_RTGcore_GG] (site GAGTCCACTAC) (LTG core: CT, RTG core: GG)", "values": [{"measurement": "recombinant barcode read abundance (log10)", "value": 0.482}]}
{"sequence": "GAGTCCACTTGGGTTCTAACCTGTTGCGTGA [GAGTCCACTAC_LTGcore_CT_RTGcore_TC] (site GAGTCCACTAC) (LTG core: CT, RTG core: TC)", "values": [{"measurement": "recombinant barcode read abundance (log10)", "value": 0.116}]}
{"sequence": "GAGTCCACTTGGGTTCTAACCTGTTGCGTTT [GAGTCCACTAC_LTGcore_CT_RTGcore_AA] (site GAGTCCACTAC) (LTG core: CT, RTG core: AA)", "values": [{"measurement": "recombinant barcode read abundance (log10)", "value": 1.07}]}
{"sequence": "GAGTCCTATTGGGTTCTAACCTGTTGCCTAG [GAGTCCTCTAG_LTGcore_AT_RTGcore_CT] (site GAGTCCTCTAG) (LTG core: AT, RTG core: CT)", "values": [{"measurement": "recombinant barcode read abundance (log10)", "value": 0.0701}]}
{"sequence": "GAGTCCTATTGGGTTCTAACCTGTTGCCTAT [GAGTCCTCTAG_LTGcore_AT_RTGcore_AT] (site GAGTCCTCTAG) (LTG core: AT, RTG core: AT)", "values": [{"measurement": "recombinant barcode read abundance (log10)", "value": 0.0431}]}
{"sequence": "GAGTCCTCGTGGGTTCTAACCTGTTGCCTAG [GAGTCCTCTAG_LTGcore_CG_RTGcore_CT] (site GAGTCCTCTAG) (LTG core: CG, RTG core: CT)", "values": [{"measurement": "recombinant barcode read abundance (log10)", "value": 0.274}]}
{"sequence": "GAGTCCTCTTGGGTTCTAACCTGTTGCCTAT [GAGTCCTCTAG_LTGcore_CT_RTGcore_AT] (site GAGTCCTCTAG) (LTG core: CT, RTG core: AT)", "values": [{"measurement": "recombinant barcode read abundance (log10)", "value": 0.495}]}
{"sequence": "GAGTCCTCTTGGGTTCTAACCTGTTGCCTGC [GAGTCCTCTAG_LTGcore_CT_RTGcore_GC] (site GAGTCCTCTAG) (LTG core: CT, RTG core: GC)", "values": [{"measurement": "recombinant barcode read abundance (log10)", "value": 0.293}]}
{"sequence": "GAGTCCTCTTGGGTTCTAACCTGTTGCCTTT [GAGTCCTCTAG_LTGcore_CT_RTGcore_AA] (site GAGTCCTCTAG) (LTG core: CT, RTG core: AA)", "values": [{"measurement": "recombinant barcode read abundance (log10)", "value": 0.398}]}
{"sequence": "GCGCGACAATGGGTTCTAACCTGTTGCTTAG [GCGCGACCTAA_LTGcore_AA_RTGcore_CT] (site GCGCGACCTAA) (LTG core: AA, RTG core: CT)", "values": [{"measurement": "recombinant barcode read abundance (log10)", "value": 0}]}
{"sequence": "GCGCGACACTGGGTTCTAACCTGTTGCTTAG [GCGCGACCTAA_LTGcore_AC_RTGcore_CT] (site GCGCGACCTAA) (LTG core: AC, RTG core: CT)", "values": [{"measurement": "recombinant barcode read abundance (log10)", "value": 0.131}]}
{"sequence": "GCGCGACCGTGGGTTCTAACCTGTTGCTTAG [GCGCGACCTAA_LTGcore_CG_RTGcore_CT] (site GCGCGACCTAA) (LTG core: CG, RTG core: CT)", "values": [{"measurement": "recombinant barcode read abundance (log10)", "value": 0.217}]}
{"sequence": "GCGCGACCGTGGGTTCTAACCTGTTGCTTCG [GCGCGACCTAA_LTGcore_CG_RTGcore_CG] (site GCGCGACCTAA) (LTG core: CG, RTG core: CG)", "values": [{"measurement": "recombinant barcode read abundance (log10)", "value": 0.282}]}
{"sequence": "GCGCGACCTTGGGTTCTAACCTGTTGCTTGG [GCGCGACCTAA_LTGcore_CT_RTGcore_CC] (site GCGCGACCTAA) (LTG core: CT, RTG core: CC)", "values": [{"measurement": "recombinant barcode read abundance (log10)", "value": 0}]}
{"sequence": "GCGCGACCTTGGGTTCTAACCTGTTGCTTTA [GCGCGACCTAA_LTGcore_CT_RTGcore_TA] (site GCGCGACCTAA) (LTG core: CT, RTG core: TA)", "values": [{"measurement": "recombinant barcode read abundance (log10)", "value": 0.265}]}
{"sequence": "GCGCGACCTTGGGTTCTAACCTGTTGCTTTG [GCGCGACCTAA_LTGcore_CT_RTGcore_CA] (site GCGCGACCTAA) (LTG core: CT, RTG core: CA)", "values": [{"measurement": "recombinant barcode read abundance (log10)", "value": 0.102}]}
{"sequence": "GCGCGACGGTGGGTTCTAACCTGTTGCTTCC [GCGCGACCTAA_LTGcore_GG_RTGcore_GG] (site GCGCGACCTAA) (LTG core: GG, RTG core: GG)", "values": [{"measurement": "recombinant barcode read abundance (log10)", "value": 0.315}]}
{"sequence": "GCGCGACGTTGGGTTCTAACCTGTTGCTTAG [GCGCGACCTAA_LTGcore_GT_RTGcore_CT] (site GCGCGACCTAA) (LTG core: GT, RTG core: CT)", "values": [{"measurement": "recombinant barcode read abundance (log10)", "value": 0.0314}]}
{"sequence": "GCGCGACTATGGGTTCTAACCTGTTGCTTTA [GCGCGACCTAA_LTGcore_TA_RTGcore_TA] (site GCGCGACCTAA) (LTG core: TA, RTG core: TA)", "values": [{"measurement": "recombinant barcode read abundance (log10)", "value": 0.118}]}
{"sequence": "GCGCGACTCTGGGTTCTAACCTGTTGCTTGA [GCGCGACCTAA_LTGcore_TC_RTGcore_TC] (site GCGCGACCTAA) (LTG core: TC, RTG core: TC)", "values": [{"measurement": "recombinant barcode read abundance (log10)", "value": 0.228}]}
{"sequence": "GCGGGACAATGGGTTCTAACCTGTTGCCTAG [GCGGGACCTAG_LTGcore_AA_RTGcore_CT] (site GCGGGACCTAG) (LTG core: AA, RTG core: CT)", "values": [{"measurement": "recombinant barcode read abundance (log10)", "value": 0.227}]}
{"sequence": "GCGGGACACTGGGTTCTAACCTGTTGCCTAG [GCGGGACCTAG_LTGcore_AC_RTGcore_CT] (site GCGGGACCTAG) (LTG core: AC, RTG core: CT)", "values": [{"measurement": "recombinant barcode read abundance (log10)", "value": 0.121}]}
{"sequence": "GCGGGACATTGGGTTCTAACCTGTTGCCTAT [GCGGGACCTAG_LTGcore_AT_RTGcore_AT] (site GCGGGACCTAG) (LTG core: AT, RTG core: AT)", "values": [{"measurement": "recombinant barcode read abundance (log10)", "value": 0.11}]}
{"sequence": "GCGGGACCTTGGGTTCTAACCTGTTGCCTCA [GCGGGACCTAG_LTGcore_CT_RTGcore_TG] (site GCGGGACCTAG) (LTG core: CT, RTG core: TG)", "values": [{"measurement": "recombinant barcode read abundance (log10)", "value": 0.682}]}
{"sequence": "GCGGGACCTTGGGTTCTAACCTGTTGCCTGG [GCGGGACCTAG_LTGcore_CT_RTGcore_CC] (site GCGGGACCTAG) (LTG core: CT, RTG core: CC)", "values": [{"measurement": "recombinant barcode read abundance (log10)", "value": 0.0406}]}
{"sequence": "GCGGGACGATGGGTTCTAACCTGTTGCCTTC [GCGGGACCTAG_LTGcore_GA_RTGcore_GA] (site GCGGGACCTAG) (LTG core: GA, RTG core: GA)", "values": [{"measurement": "recombinant barcode read abundance (log10)", "value": 0.2}]}
{"sequence": "GCGGGACGGTGGGTTCTAACCTGTTGCCTAG [GCGGGACCTAG_LTGcore_GG_RTGcore_CT] (site GCGGGACCTAG) (LTG core: GG, RTG core: CT)", "values": [{"measurement": "recombinant barcode read abundance (log10)", "value": 0.14}]}
{"sequence": "GCGGGACGTTGGGTTCTAACCTGTTGCCTAG [GCGGGACCTAG_LTGcore_GT_RTGcore_CT] (site GCGGGACCTAG) (LTG core: GT, RTG core: CT)", "values": [{"measurement": "recombinant barcode read abundance (log10)", "value": 0.0984}]}
{"sequence": "GGACACCACTGGGTTCTAACCTGTTGCCTAG [GGACACCCTAG_LTGcore_AC_RTGcore_CT] (site GGACACCCTAG) (LTG core: AC, RTG core: CT)", "values": [{"measurement": "recombinant barcode read abundance (log10)", "value": 0.0688}]}
{"sequence": "GGACACCCCTGGGTTCTAACCTGTTGCCTGG [GGACACCCTAG_LTGcore_CC_RTGcore_CC] (site GGACACCCTAG) (LTG core: CC, RTG core: CC)", "values": [{"measurement": "recombinant barcode read abundance (log10)", "value": 0.128}]}
